Five compounds from paper PMC11143095, “Chemically engineered essential oils prepared through thiocyanation under solvent-free conditions: chemical and bioactivity alteration” (Natural Products and Bioprospecting, 2024) can be followed below.

The experiment deals with T1, AChE from Electrophorus electricus (Electrophorus electricus, UniProt O42275).
T1 construct: purchased Sigma-Aldrich (St. Louis, MO, USA)
Briefly: biochemical. The following applies: for IC50: Ellman's reagent, microplate, 37 °C, pH 7.5, read-out: half maximal inhibitory concentration (IC50) against AChE. How it is done: Microplate assays utilizing Ellman’s reagent were performed to quantitatively assess the inhibitory activity of the isolated compounds against AChE [67].
Ammonium thiocyanate, sodium thiosulfate pentahydrate, anhydrous sodium sulfate and iodine were purchased from Cicarelli Laboratorios (San Lorenzo, Santa Fe). AChE from Electrophorus electricus EC 3.1.1.7, Fast blue salt B (FBB), α-naphthol, α-naphthyl acetate (α-NAc), and CDCl3, were purchased from Sigma-Aldrich (St. Louis, MO, USA). Acetonitrile (LCMS grade) was acquired from Carlo Erba Reagents (Val de Reuil, France) and formic acid from Merck. Aluminium TLC sheets coated with Silica gel 60 F were purchased from Merck (Darmstadt, Germany). Agar was purchased from Britania (Bs. As., Argentina).
Inhibition percentage determinations were carried out using the method applied by Osella et al.. Wells were filled in triplicate with AChE solution (in 0.1 M phosphate buffer, pH 7.5, and 13.7 µU/mL end concentration per well), Ellman’s reagent (DTNB, 5,5dithio-bis-(2-nitrobenzoic acid)), the same buffer solution (0.31 mM end concentration per well) and 10 µL of test compound in DMSO solution (0.05 µM end concentration per well). […] The enzymatic reaction was initiated by addition of acetylthiocholine iodide (0.46 mM end concentration per well). The final volume per well was 270 µL. The plate was shaken for 2 s and the increase in absorbance at 405 nm was monitored at 37 °C for 15 min. For IC50 determination, ten serial dilutions of the compounds were prepared in DMSO, following equally spaced points on a neperian logarithm scale, starting at 2.16 mM and finishing at 0.00023 mM (end concentration per well: 80.00 to 0.00839 µM). IC50 calculated using Prism V5.01 (GraphPad Software Inc., La Jolla, CA, USA) applying a non linear regression curve fit for a log[inhibitor] vs. normalized answer model with variable slope.
In general terms: In Ellman's method for cholinesterases, released thiocholine reacts with DTNB.

T1 sequence (O42275 24-633): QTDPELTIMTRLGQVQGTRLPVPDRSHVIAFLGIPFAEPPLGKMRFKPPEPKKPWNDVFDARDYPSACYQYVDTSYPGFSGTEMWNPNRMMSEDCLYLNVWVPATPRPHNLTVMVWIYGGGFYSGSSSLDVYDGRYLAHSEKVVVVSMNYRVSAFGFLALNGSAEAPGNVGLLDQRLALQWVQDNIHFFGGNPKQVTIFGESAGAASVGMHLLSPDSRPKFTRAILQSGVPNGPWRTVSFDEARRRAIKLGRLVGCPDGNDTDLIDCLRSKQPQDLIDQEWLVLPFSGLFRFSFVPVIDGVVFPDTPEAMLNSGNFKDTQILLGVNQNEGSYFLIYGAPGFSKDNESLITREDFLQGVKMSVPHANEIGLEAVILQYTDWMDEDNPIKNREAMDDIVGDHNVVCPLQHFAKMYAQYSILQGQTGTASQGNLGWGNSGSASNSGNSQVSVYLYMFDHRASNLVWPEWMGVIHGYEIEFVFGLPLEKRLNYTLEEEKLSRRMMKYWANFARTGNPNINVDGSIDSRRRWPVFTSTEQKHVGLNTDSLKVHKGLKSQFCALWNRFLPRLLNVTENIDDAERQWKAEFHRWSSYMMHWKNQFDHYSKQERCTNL

Consider `Cc1cc(SC#N)c(C(C)C)cc1O` [compound 1, 5-isopropyl-2-methyl-4-thiocyanatophenol], for which the IC50 stood at 4086 ± 35 nM. With `Cc1ccc(C(C)C)cc1O` [carvacrol, reference compound], the “activity against AChE (in words)” value was “inactive”.

Turning to `Cc1cc(Sc2nsc(Sc3cc(C)c(O)cc3C(C)C)n2)c(C(C)C)cc1O` [compound 4], the IC50 came out at 34 ± 16 nM. On to `Cc1cc(Sc2nsc(-c3cc(C)c(O)cc3C(C)C)n2)c(C(C)C)cc1O` [compound 3, 4-((5-(4-hydroxy-2-isopropyl-5-methylphenyl)-1,2,4-thiadiazol-3-yl)thio)-5-isopropyl-2-methylphenol], for which the IC50 was found to be 56 ± 25 nM. As to `Cc1cc(Sc2cc(C)c(O)cc2C(C)C)c(C(C)C)cc1O` [compound 2, 4,4′-thiobis(5-isopropyl-2-methylphenol)], the IC50 came out at 158 ± 59 nM.
